In patent US6489308B1, “Inhibitors of serine protease activity, methods and compositions for treatment of nitric-oxide-induced clinical conditions” (Trustees of University of Technology Corporation, priority 1999, dated 2002):
“Also recorded” adds a separate entry of the source.

What was measured:
Assay type in all cases: cell-based
[1] = tested on: NF-κB; experiment: Electrophoretic mobility shift assay of NF-κB induced by interleukin-18; conditions: incubation with IL-18, FIG. 3
[2] = tested on: RAW 264.5 macrophages; experiment: NO release (nitrite, Greiss reagent) upon induction with LPS and γ-IFN in macrophagic cells; conditions: FIG. 1 / FIG. 4
[3] = tested on: p-ERK; experiment: Western blot of p-ERK (p42/p44 MAP kinase); conditions: FIG. 5
[4] = tested on: cytomegalovirus (CMV); experiment: Cytomegalovirus replication in infected RAW 264.5 macrophages; conditions: RAW 264.5 macrophages infected with CMV; FIG. 6
[5] = tested on: iNOS protein; experiment: Western blot of iNOS protein induction by LPS and γ-interferon in macrophagic cells; conditions: γ-IFN and LPS, FIG. 2
[6] = tested on: herpes simplex virus (HSV); experiment: Herpes simplex virus replication; conditions: FIG. 7

Compound | induction of active NF-κB [1] | NO levels induced by γ-IFN and LPS (measured as NO2-) [2] | level and/or phosphorylation of p-ERK [3] | CMV replication [4] | induction of iNOS protein [5] | replication of HSV [6]
Cc1cccc(Cc2nnc(C(=O)C(NC(=O)[C@@H]3CCCN3C(=O)[C@@H](NC(=O)OCc3ccccc3)C(C)C)C(C)C)o2)c1 (stereo partly drawn) [CE-2072, benzyloxycarbonyl-L-valyl-N-[1-(2-[5-(3-methylbenzyl)-1,3,4-oxadiazolyl]carbonyl)-2-(S)-methylpropyl]-L-prolinamide, reference compound] | inhibit the induction of active NF-κB | inhibits NO levels | – | – | – | –
α1-antitrypsin: glycoprotein of MW 51,000 with 417 amino acids and 3 oligosaccharide side chains; naturally occurring serine protease inhibitor | inhibit the induction of active NF-κB | efficiently block γ-IFN- and LPS-induced NO synthesis; also recorded: inhibits NO levels | inhibits the level and/or phosphorylation of p-ERK | blocks CMV replication | inhibits induction of iNOS protein | inhibits replication of HSV
